{"source": "patent US8975235B2", "about": "“Lysophosphatidic acid receptor antagonists” (InterMune, Inc., priority 2011, dated 2015)", "target": "Human LPA1 (Homo sapiens, UniProt Q92633)", "sequence (Q92633 whole entry)": "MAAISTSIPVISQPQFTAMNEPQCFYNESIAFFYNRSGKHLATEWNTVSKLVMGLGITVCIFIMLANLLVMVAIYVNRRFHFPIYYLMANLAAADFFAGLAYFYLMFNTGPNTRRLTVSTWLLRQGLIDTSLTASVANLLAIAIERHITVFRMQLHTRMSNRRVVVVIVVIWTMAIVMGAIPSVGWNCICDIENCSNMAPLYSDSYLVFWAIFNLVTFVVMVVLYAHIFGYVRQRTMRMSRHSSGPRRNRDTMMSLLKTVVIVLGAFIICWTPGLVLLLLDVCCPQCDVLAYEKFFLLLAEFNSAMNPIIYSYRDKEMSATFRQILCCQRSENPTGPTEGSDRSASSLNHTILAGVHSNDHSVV", "assay": "Beta-Arrestin based assay for human LPA1R antagonists (PathHunter)", "assay_type": "cell-based", "set-up": "host or cells: CHO", "conditions": "CHO cells stably expressing ProLink tagged human LPA1R; agonist LPA 0.5 micromolar", "procedure": "Beta-Arrestin Based Assays for Human LPA1R Antagonists and Agonists\nA CHO cell line stably expressing the ProLink™ tagged human LPA1R was obtained from DiscoverX Inc, Fremont, Calif. In this system, β-Arrestin was fused to an N-terminal deletion mutant of β-galactosidase (termed the enzyme acceptor or EA), the human LPA1R was fused to a smaller (42 amino acids) weakly complementing fragment termed ProLink™. […] Cell handling and assays were performed according to protocols specified in the PathHunter® assays kits (DiscoverX, Fremont, Calif.). Assays were performed in quadruplicate in white 384 well plates. End point luminescence data were plotted and fit to a 4 parameter logistic function to obtain IC50 values. For antagonist assays, an […] concentration of agonist (LPA) equal to 0.5 micromolar was used.", "data": [{"compound": "O=C(Nc1ncsc1-c1ccc(-c2ccc(C3(C(=O)O)CC3)cc2)cc1)OCc1ccccc1", "note": "[Compound 111]", "values": [{"measurement": "EC50", "value": "> 500", "unit": "nM"}]}, {"compound": "Cc1nsc(-c2ccc(-c3ccc(C4(C(=O)O)CC4)cc3)cc2)c1NC(=O)OCc1ccc(F)cc1", "note": "[Compound 98]", "values": [{"measurement": "EC50", "value": "50 to 500", "unit": "nM"}]}, {"compound": "Cc1cc(-c2snc(C)c2NC(=O)O[C@H](C)c2ccccc2Cl)c(Cl)cc1-c1ccc(C2(C(=O)O)CC2)cc1", "note": "[Compound 122]", "values": [{"measurement": "EC50", "value": "< 50", "unit": "nM"}]}, {"compound": "C[C@@H](OC(=O)Nc1nnn(C)c1-c1ccc(-c2ccc(C3(C(=O)O)CC3)cc2)cc1)c1ccccc1", "note": "[Compound 226]", "values": [{"measurement": "EC50", "value": "> 500", "unit": "nM"}]}, {"compound": "Cc1noc(-c2ccc(-c3ccc4c(c3)CCCC4C(=O)O)cc2)c1NC(=O)O[C@H](C)c1ccccc1Cl", "note": "(some centres unmarked) [Compound 24]", "values": [{"measurement": "EC50", "value": "50 to 500", "unit": "nM"}]}, {"compound": "C[C@@H](OC(=O)Nc1ncsc1-c1ccc(-c2ccc(C3(C(=O)O)CC3)cc2)cc1)c1ccccc1", "note": "[Compound 109]", "values": [{"measurement": "EC50", "value": "50 to 500", "unit": "nM"}]}, {"compound": "Cc1nsc(-c2ccc(-c3ccc(C4(C(=O)O)CC4)c(F)c3)cc2)c1NC(=O)O[C@H](C)c1ccccc1Cl", "note": "[Compound 197]", "values": [{"measurement": "EC50", "value": "< 50", "unit": "nM"}]}, {"compound": "Cc1cc(-c2snc(C)c2NC(=O)O[C@H](C)c2ccccc2Cl)c(F)cc1-c1ccc(C2(C(=O)O)CC2)cc1", "note": "[Compound 121]", "values": [{"measurement": "EC50", "value": "< 50", "unit": "nM"}]}, {"compound": "Cc1ccc2c(NC(=O)O[C@H](C)c3ccccc3)c(-c3ccc(-c4ccc(C5(C(=O)O)CC5)cc4)cc3)oc2n1", "note": "[Compound 215]", "values": [{"measurement": "EC50", "value": "> 500", "unit": "nM"}]}, {"compound": "Cc1nsc(C#Cc2ccc3cc(CC(=O)O)ccc3c2)c1NC(=O)OCc1ccccc1", "note": "[Compound 91]", "values": [{"measurement": "EC50", "value": "> 500", "unit": "nM"}]}, {"compound": "Cc1nsc(-c2ccc(-c3ccc4c(ccn4CC(=O)O)c3)cc2)c1NC(=O)O[C@H](C)c1ccccc1Cl", "note": "[Compound 104]", "values": [{"measurement": "EC50", "value": "> 500", "unit": "nM"}]}, {"compound": "CCCOC(=O)NCC(=O)c1ccc(-c2ccc(CC(=O)O)cc2)cc1", "note": "[reference compound]", "values": [{"measurement": "EC50", "value": "> 500", "unit": "nM"}]}, {"compound": "Cc1noc(-c2ccc(-c3ccc4c(c3)CCCC4C(=O)O)cc2)c1NC(=O)O[C@H](C)c1ccccc1Cl", "note": "(some centres unmarked) [Compound 21]", "values": [{"measurement": "EC50", "value": "50 to 500", "unit": "nM"}]}, {"compound": "CC(=O)Nc1ccnc(-c2ccc(-c3ccc(CC(=O)O)cc3)cc2)c1", "note": "[reference compound]", "values": [{"measurement": "EC50", "value": "> 500", "unit": "nM"}]}, {"compound": "Cc1nsc(-c2ccc(-c3ccc(CC(=O)O)cc3Cl)cc2)c1NC(=O)O[C@H](C)c1ccccc1Cl", "note": "[Compound 190]", "values": [{"measurement": "EC50", "value": "50 to 500", "unit": "nM"}]}, {"compound": "Cc1nsc(-c2ccc(-c3ccc(C4(C(=O)O)CC4)cc3)cc2)c1NC(=O)OCc1ccccc1F", "note": "[Compound 73]", "values": [{"measurement": "EC50", "value": "50 to 500", "unit": "nM"}]}, {"compound": "Cc1nsc(-c2ccc(-c3ccc(C4(C(=O)O)CCC4)cc3)cc2)c1NC(=O)O[C@H](C)c1ccccc1", "note": "[Compound 127]", "values": [{"measurement": "EC50", "value": "50 to 500", "unit": "nM"}]}, {"compound": "Cc1noc(C#Cc2ccc3cc(CC(=O)O)ccc3c2)c1NC(=O)O[C@H](C)c1ccccc1", "note": "[Compound 128]", "values": [{"measurement": "EC50", "value": "50 to 500", "unit": "nM"}]}, {"compound": "COC(=O)N1CC(C(=O)O)(c2ccc(-c3ccc(-c4onc(C)c4NC(=O)O[C@H](C)c4ccccc4Cl)cc3)cc2)C1", "note": "[Compound 37]", "values": [{"measurement": "EC50", "value": "< 50", "unit": "nM"}]}, {"compound": "CCCCC(=O)NCC(=O)c1ccc(-c2ccc(CC(=O)O)cc2)cc1", "note": "[reference compound]", "values": [{"measurement": "EC50", "value": "> 500", "unit": "nM"}]}, {"compound": "CC(C)NC(=O)Nc1ncncc1-c1ccc(-c2ccc(CC(=O)O)cc2)cc1", "note": "[reference compound]", "values": [{"measurement": "EC50", "value": "> 500", "unit": "nM"}]}, {"compound": "CCNC(=O)N1CC(C(=O)O)(c2ccc(-c3ccc(-c4onc(C)c4NC(=O)O[C@H](C)c4ccccc4Cl)cc3)cc2)C1", "note": "[Compound 40]", "values": [{"measurement": "EC50", "value": "50 to 500", "unit": "nM"}]}, {"compound": "Cc1nc(-c2ccc(-c3ccc(C4(C(=O)O)CC4)cc3)cc2)c(NC(=O)O[C@H](C)c2ccccc2Cl)o1", "note": "[Compound 155]", "values": [{"measurement": "EC50", "value": "50 to 500", "unit": "nM"}]}, {"compound": "Cc1cc(-c2snc(C)c2NC(=O)O[C@H](C)c2ccccc2Cl)c(C)cc1-c1ccc(C2(C(=O)O)CC2)cc1", "note": "[Compound 123]", "values": [{"measurement": "EC50", "value": "50 to 500", "unit": "nM"}]}, {"compound": "CC(OC(=O)Nc1n[nH]nc1-c1ccc(-c2ccc(C3(C(=O)O)CC3)cc2)cc1)c1ccccc1", "note": "(centres unmarked) [Compound 223]", "values": [{"measurement": "EC50", "value": "> 500", "unit": "nM"}]}, {"compound": "Cc1nsc(-c2cc(F)c(-c3ccc(C4(C(=O)O)CC4)cc3)cc2F)c1NC(=O)O[C@H](C)c1ccccc1Cl", "note": "[Compound 181]", "values": [{"measurement": "EC50", "value": "< 50", "unit": "nM"}]}, {"compound": "CC(C)NC(=O)Nc1ccnc(-c2ccc(-c3ccc(CC(=O)O)cc3)cc2)c1", "note": "[reference compound]", "values": [{"measurement": "EC50", "value": "> 500", "unit": "nM"}]}, {"compound": "C[C@@H](OC(=O)Nc1nonc1-c1ccc(-c2ccc(C3(C(=O)O)CC3)cc2)cc1)c1ccccc1Cl", "note": "[Compound 177]", "values": [{"measurement": "EC50", "value": "< 50", "unit": "nM"}]}, {"compound": "O=C(Nc1ocnc1-c1ccc(-c2ccc(C3(C(=O)O)CC3)cc2)cc1)OCc1ccccc1", "note": "[Compound 148]", "values": [{"measurement": "EC50", "value": "> 500", "unit": "nM"}]}, {"compound": "Cc1noc(-c2ccc(-c3ccc(N4CCC[C@H](C(=O)O)C4)cc3)cc2)c1NC(=O)O[C@H](C)c1ccccc1Cl", "note": "[Compound 139]", "values": [{"measurement": "EC50", "value": "50 to 500", "unit": "nM"}]}, {"compound": "Cc1nsc(-c2ccc(-c3ccc(C4(C(=O)O)CC4)cn3)cc2)c1NC(=O)O[C@H](C)c1ccccc1Cl", "note": "[Compound 252]", "values": [{"measurement": "EC50", "value": "50 to 500", "unit": "nM"}]}, {"compound": "Cc1nsc(-c2ccc3cc(C#CC4(C(=O)O)CC4)ccc3c2)c1NC(=O)O[C@H](C)c1ccccc1Cl", "note": "[Compound 87]", "values": [{"measurement": "EC50", "value": "< 50", "unit": "nM"}]}, {"compound": "CC(C)n1ncc(-c2ccc(-c3ccc(C4(C(=O)O)CC4)cc3)cc2)c1NC(=O)O[C@H](C)c1ccccc1", "note": "[Compound 220]", "values": [{"measurement": "EC50", "value": "< 50", "unit": "nM"}]}, {"compound": "Cc1nsc(-c2ccc3c(c2)CCc2cc(C4(C(=O)O)CC4)ccc2-3)c1NC(=O)OCc1ccccc1", "note": "[Compound 246]", "values": [{"measurement": "EC50", "value": "50 to 500", "unit": "nM"}]}, {"compound": "Cc1nsc(-c2ccc(-c3ccc(C4(C(=O)O)CC4)cc3)cc2F)c1NC(=O)O[C@H](C)c1ccccc1Cl", "note": "[Compound 119]", "values": [{"measurement": "EC50", "value": "< 50", "unit": "nM"}]}, {"compound": "Cc1nsc(-c2ccc(-c3ccc(C4(C(=O)O)CCCC4)cc3)cc2)c1NC(=O)O[C@H](C)c1ccccc1", "note": "[Compound 125]", "values": [{"measurement": "EC50", "value": "50 to 500", "unit": "nM"}]}, {"compound": "Cc1nsc(-c2ccc(-c3ccc(C4(C(=O)O)CC4)cc3)cc2)c1NC(=O)OCc1ccc(Cl)cc1Cl", "note": "[Compound 99]", "values": [{"measurement": "EC50", "value": "> 500", "unit": "nM"}]}, {"compound": "Cc1nsc(-c2ccc(-c3ccc(C4(C(=O)O)CC4)cc3)cc2)c1NC(=O)O[C@H](C)C1=C(Cl)CCCC1", "note": "[Compound 218]", "values": [{"measurement": "EC50", "value": "< 50", "unit": "nM"}]}, {"compound": "Cn1cnc(-c2ccc(-c3ccc(C4(C(=O)O)CC4)cc3)cc2)c1NC(=O)OCc1ccccc1", "note": "[Compound 167]", "values": [{"measurement": "EC50", "value": "> 500", "unit": "nM"}]}, {"compound": "C[C@H](NC(=O)OCc1ccccc1)C(=O)N1CCN(c2ccc(CC(=O)O)cc2)CC1", "note": "[Compound 267]", "values": [{"measurement": "EC50", "value": "> 500", "unit": "nM"}]}, {"compound": "C[C@@H](OC(=O)Nc1c(-c2ccc(-c3ccc(C4(C(=O)O)CC4)cc3)cc2)oc2cnccc12)c1ccccc1", "note": "[Compound 150]", "values": [{"measurement": "EC50", "value": "< 50", "unit": "nM"}]}, {"compound": "Cc1nsc(-c2ccc(-c3ccc(C4(C(=O)O)CCOCC4)cc3)cc2)c1NC(=O)O[C@H](C)c1ccccc1", "note": "[Compound 243]", "values": [{"measurement": "EC50", "value": "50 to 500", "unit": "nM"}]}, {"compound": "Cc1nsc(-c2ccc(-c3ccc(C4(C(=O)O)CC4)cc3)cc2)c1NC(=O)O[C@@H](C)C1=C(Cl)CCC1", "note": "(single isomer, unassigned) [Compound 217]", "values": [{"measurement": "EC50", "value": "> 500", "unit": "nM"}]}, {"compound": "Cc1nsc(-c2cc(Cl)c(-c3ccc(C4(C(=O)O)CC4)cc3)cc2F)c1NC(=O)O[C@H](C)c1ccccc1Cl", "note": "[Compound 120]", "values": [{"measurement": "EC50", "value": "< 50", "unit": "nM"}]}, {"compound": "Cc1nsc(-c2ccc3cc(C#CC4(C(=O)O)CC4)ccc3c2)c1NC(=O)OCc1ccccc1", "note": "[Compound 89]", "values": [{"measurement": "EC50", "value": "50 to 500", "unit": "nM"}]}, {"compound": "Cc1noc(-c2ccc(-c3ccc(N4CCC[C@@H](C(=O)O)C4)cc3)cc2)c1NC(=O)O[C@H](C)c1ccccc1", "note": "[Compound 136]", "values": [{"measurement": "EC50", "value": "50 to 500", "unit": "nM"}]}, {"compound": "Cc1nsc(-c2ccc(-c3ccc(C4(C(=O)O)CC4)cc3)c(Cl)c2)c1NC(=O)O[C@H](C)c1ccccc1Cl", "note": "[Compound 186]", "values": [{"measurement": "EC50", "value": "< 50", "unit": "nM"}]}, {"compound": "Cc1nc(-c2ccc(-c3ccc(C4(C(=O)O)CC4)cc3)cc2)c(NC(=O)OCc2ccccc2)o1", "note": "[Compound 156]", "values": [{"measurement": "EC50", "value": "> 500", "unit": "nM"}]}, {"compound": "Cc1nsc(C#Cc2ccc3cc(CC(=O)O)ccc3c2)c1NC(=O)O[C@H](C)c1ccccc1", "note": "[Compound 90]", "values": [{"measurement": "EC50", "value": "50 to 500", "unit": "nM"}]}, {"compound": "Cc1nsc(-c2ccc3cc(C#CC4(C(=O)O)CC4)ccc3c2)c1NC(=O)O[C@H](C)c1ccccc1", "note": "[Compound 88]", "values": [{"measurement": "EC50", "value": "50 to 500", "unit": "nM"}]}]}
